Measured values from patent publication US12421206B2, “Aryl-n-aryl derivatives for treating a RNA virus infection” (ABIVAX, priority 2018, dated 2025).

Experiments:
[1] = tested on: Chikungunya Virus (CHIKV) strain LR2006-OPY1 with GFP modification (CHIK 5'LR); test: microbe, parasite or virus in culture; format: cell-based; conditions: HEK-293T, infected HEK293T cells; for inhibition at 1 µM: compounds at 1 μM, MOI 0.1, 22 h, mean of 2 experiments, values above 100 lowered to 100, read-out: % CHIKV Inhibition Mean (n = 2); for IC50: second round of experiments, range stated for listed compounds, read-out: IC50 (CHIKV inhibition)
Method: The ability of the compounds to inhibit viral replication was assessed with an experiment in which infected cells were treated by compounds of formula (Ie) at 1 μM. As a positive control for inhibition of Chikungunya, Ribavirin was used. Toxicity of the compounds was assessed in parallel.
Human embryonic kidney cells 293T (HEK293T, CRL-11268) were maintained in Dulbecco's modified Eagle's Medium (DMEM, 31966-021, Thermo Fisher Scientific) supplemented with 10% of fetal bovine serum (FBS), penicillin and streptomycin. After removal of the medium, cells were washed with Ca^2+ and Mg^2+-free salt solution to remove all traces of serum. After aspiration of wash solution, cells were dissociated with 0.25% Trypsin-EDTA solution and incubated 30 s at least in 37° C. incubator. Concentration of cell suspension was determined by an automatic cell counter (EVE, NanoEntek) and, if needed, adjusted to 0.33×10^6 cells/mL with DMEM medium supplemented with 10% FBS.
100 μL of the cell suspension were dispatched in a ViewPlate-96 Black (6005182, PerkinElmer) and in a transparent 96-well cell culture plate (655180, Greiner bio-one). After an incubation for 24 h at 37° C. under 5% of CO2, compounds were added at the proper concentration.
An intermediate dilution was prepared with DMSO (D8418, Sigma) at 2 mM in a 96-well V-bottom microplate from the stock solution:
Mix 1 μL of the 50 mM stock library in 25 μL of DMSO.
Mix 2 μL of the 25 mM stock library in 25 μL of DMSO.
An intermediate dilution was prepared with DMSO (D8418, Sigma) at 25 mM in a 96-well V-bottom microplate from the stock solution:
Mix 2 μL of the 50 mM stock library in 2 μL of DMSO.
Perform serial dilution in 2 μL of DMSO 13 times to reach 0.0015 mM. Proceed as follows in table III:
For both screen and determination of IC50, 1 μL of each solution was added in a 1 mL Masterblock 96 wells (Greiner bio-one, 780261) containing 1 mL of DMEM medium. As a positive control, 5 μL of a 80 mM Ribavirin solution (R9644, Sigma) is added to 1 mL of DMEM. On the other hand, DMSO is used as a negative control.
[…]. Vector Borne Zoonotic Dis. 2006; 6(4)). This modified virus was used to infect cells at MOI 0.1. […].
Medium was removed after 22 h at 37° C. under 5% of CO2 and cells were washed as described above. 60 μL of RIPA buffer (50 mM Tris-HCl pH8, 100 mM NaCl, 1 mM MgCl2, 1% Triton X-100) was added to cells and incubated for at least 20 min before reading fluorescence signal. Pierce 660 nm Protein Assay Reagent (22660, Thermo scientific) was used to normalize fluorescence signal by protein quantity.
• A first round of experiments has been performed wherein the results are expressed as inhibition percentage, which is calculated as follows, through the following steps: • 1. Fluorescence intensity (FI)/Absorbance 660 nm (A660)=A
This ratio allows considering the infection (GFP virus) to the protein amount. • 2. A′=A−background noise of non-infected plate, • 3. B=Fluorescence intensity (FI)/Absorbance 660 nm (A660) of infected but non treated plates, • 4. C=A′/B, which is then converted as the percentage of infection after treatment, compared to non-treated sample, and subsequently as the infection percentage. For instance, a value of 100 in Table IV here below means that, after treatment, the signal attributed to GFP fluorescence is abolished, which is correlated to the absence of infection. • 5. C′=100−C
This value corresponds to the inhibition's percentage.
The following Table IV encompasses said C′ value for some compounds, as calculated above with a mean of 2 experiments, and corresponding standard deviation.
Some values were originally above 100. In these cases, the value has been lowered to 100. This means that some molecules also have an impact on the viability of the cells. In other words, the A value may be lower than the background noise.
Moreover, for each measure, the test was performed with Ribavirin as control. The value of the inhibition percentage was checked, giving 100%.

[2] = tested on: RSV A2; test: RSV inhibition (cytopathic effect inhibition) using Viral ToxGlo assay in HEp-2 cells; format: cell-based; conditions: human respiratory syncytial virus, RSV A2, MOI 0.5, HEp-2 cells, 72 h p.i.
Summary of the method: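 HEp-2 cells in EMEM with 2% FBS were infected with RSV A2 at MOI 0.5 immediately after compound (≤1% DMSO) and incubated 72 h at 37 °C. Viral ToxGlo luminescence gave % cytopathic effect inhibition versus virus control, plus cytotoxicity versus cell control; EC50 derived from dose-response.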

[3] = tested on: DENV-2 strain 16681; test: DENV-2 inhibition (cytopathic effect inhibition) using Viral ToxGlo assay in A549 cells; format: cell-based, Dengue 2 virus; conditions: Dengue virus, DENV2, 120 h, compounds at 10 μM, MOI 0.5, 5 days p.i., read-out: % DENV-2 Inhibition Mean (n = 3)
Method: Protocol for Screening Antiviral Compounds for DENV-2 Inhibition and Cytotoxicity Using Viral ToxGlo Assay
A549 cells were maintained in Dulbecco's Modified Eagle Medium (DMEM) supplemented with 10% fetal bovine serum, 100 U/ml penicillin and 100 μg/ml streptomycin. For the purposes of the screening assay they were grown to 90% confluency, trypsinized and recovered. The trypsin was neutralised with cell culture media and cells were centrifuged at 150×g for 5 minutes before discarding the supernatant and resuspending cell pellet in assay media (DMEM supplemented with 2% fetal bovine serum and 100 U/ml penicillin and 100 μg/ml streptomycin). The cells were seeded into 96-well white clear-bottomed cell culture plates at a density of 1.0×10^4 cells/well in 50 μl. For the media/background control column assay media only was added. Cell plates were placed in a humid chamber and incubated overnight at 37° C./5% CO2. After overnight incubation cells were checked for confluency and healthy appearance.
Test compounds were prepared at a final concentration of 10 μM in a maximum DMSO concentration of 1% (final assay concentration maximal 0.1% DMSO) and added to the cell plates in volumes of 10 μl. For cell control and virus control wells the test article solvent only was added. As a positive inhibition control, 7-Deaza-2′-C-methyladenosine was added at 100 μM in 3 wells. Virus (DENV-2 strain 16681) or assay media for cytotoxicity test wells and media/cell control wells was added immediately after test articles at an MOI of 0.5, 40 for 96 well plates respectively. Virus suspension was prepared by thawing DENV-2 frozen stocks and diluting to the required concentration of plaque forming units in assay media.
Cell plates were further incubated inside a humid chamber for 5 days p.i at 37° C./5% CO2. After the incubation period cells were observed under the microscope to check for characteristic cytopathic effect in virus control wells and healthy cells in the cell control wells. After plates were adjusted to room temperature 20 μl Viral ToxGlo (Promega) was added to each well of the 96-well cell plates. Plates were incubated at room temperature for 5 minutes before measuring the luminescence on a spectrophotometer (Envision, PerkinElmer).
DENV-2 inhibition was calculated as percentage of cytopathic effect inhibition relative to the virus control and cytotoxicity as percentage of cell survival relative to cell control wells.

SMILES	inhibition at 1 µM [1] [%]	EC50 [2] [nM]	inhibition at 10 µM [3] [%]	IC50 [1] [nM]
O=C(NCCC1CCCC1)c1cccc(Nc2ccc(OCc3ccccn3)cc2)c1 [Compound 36, N-(2-cyclopentylethyl)-3-((4-(pyridin-2-ylmethoxy)phenyl)amino)benzamide]	99	232	–	–
CC(C)CCNC(=O)c1cccc(Nc2ccc(OCc3ccccn3)cc2)c1 [Compound 37, N-isopentyl-3-((4-(pyridin-2-ylmethoxy)phenyl)amino)benzamide]	100	–	–	–
Cc1cc(OCc2ccccn2)ccc1Nc1cccc(C(=O)NCCC2CCCC2)c1 [Compound 39, N-(2-cyclopentylethyl)-3-((2-methyl-4-(pyridin-2-ylmethoxy)phenyl)amino)benzamide]	98	185	–	–
Cc1cc(Nc2cccc(C(=O)NCCC3CCCC3)c2)ccc1OCc1ccccn1 [Compound 40, N-(2-cyclopentylethyl)-3-((3-methyl-4-(pyridin-2-ylmethoxy)phenyl)amino)benzamide]	99	–	71	–
O=C(NCCC1CCCC1)c1cccc(Nc2ccc(OCc3ccccn3)nc2)c1 [Compound 41, N-(2-cyclopentylethyl)-3-((6-(pyridin-2-ylmethoxy)pyridin-3-yl)amino)benzamide]	99	–	–	–
COc1cc(Nc2cccc(C(=O)NCCC3CCCC3)c2)ccc1OCc1ccccn1 [Compound 43, N-(2-cyclopentylethyl)-3-((3-methoxy-4-(pyridin-2-ylmethoxy)phenyl)amino)benzamide]	100	–	71	–
Cc1cc(OCc2ccccn2)ccc1Nc1cccc(C(=O)NCCC2CCCCC2)c1 [Compound 47, N-(2-cyclohexylethyl)-3-((2-methyl-4-(pyridin-2-ylmethoxy)phenyl)amino)benzamide]	96	182	–	–
O=C(NCCC1CCC1)c1cccc(Nc2ccc(OCc3ccccn3)cc2)c1 [Compound 48, N-(2-cyclobutylethyl)-3-((4-(pyridin-2-ylmethoxy)phenyl)amino)benzamide]	98	–	110	–
O=C(NCCC1CC1)c1cccc(Nc2ccc(OCc3ccccn3)cc2)c1 [Compound 49, N-(2-cyclopropylethyl)-3-((4-(pyridin-2-ylmethoxy)phenyl)amino)benzamide]	98	–	111	–
O=C(NCCC1CCCC1)c1cccc(Nc2ccc(OCc3ccccc3F)cc2)c1 [Compound 50, N-(2-cyclopentylethyl)-3-((4-((2-fluorobenzyl)oxy)phenyl)amino)benzamide]	100	–	–	–
N#Cc1ccccc1COc1ccc(Nc2cccc(C(=O)NCCC3CCCC3)c2)cc1 [Compound 51, 3-((4-((2-cyanobenzyl)oxy)phenyl)amino)-N-(2-cyclopentylethyl)benzamide]	100	–	–	–
O=C(NCCC1CCCC1)c1cccc(Nc2ccc(OCc3ccccc3)cc2)c1 [Compound 52, 3-((4-(benzyloxy)phenyl)amino)-N-(2-cyclopentylethyl)benzamide]	99	–	–	–
O=C(NCCC1CCCC1)c1cccc(Nc2ccc(OCc3ccccn3)c(O)c2)c1 [Compound 53, N-(2-cyclopentylethyl)-3-((3-hydroxy-4-(pyridin-2-ylmethoxy)phenyl)amino)benzamide]	–	–	–	1 to 400
Cc1cc(OCc2ccccn2)ccc1Nc1cccc(C(=O)NCCC(C)C)c1 [Compound 54, N-isopentyl-3-((2-methyl-4-(pyridin-2-ylmethoxy)phenyl)amino)benzamide]	–	177	–	1 to 400
CCc1cc(OCc2ccccn2)ccc1Nc1cccc(C(=O)NCCC(C)C)c1 [Compound 57, 3-((2-ethyl-4-(pyridin-2-ylmethoxy)phenyl)amino)-N-isopentylbenzamide]	–	26	–	1 to 400
CCc1cc(OCc2ccccn2)ccc1Nc1cccc(C(=O)NCCC2CCCC2)c1 [Compound 58, N-(2-cyclopentylethyl)-3-((2-ethyl-4-(pyridin-2-ylmethoxy)phenyl)amino)benzamide]	–	–	–	1 to 400
Cc1cc(OCc2ccccn2)ccc1Nc1cccc(C(=O)NCCC2CC(F)(F)C2)c1 [Compound 70, N-(2-(3,3-difluorocyclobutyl)ethyl)-3-((2-methyl-4-(pyridin-2-ylmethoxy)phenyl)amino)benzamide]	–	660	–	1 to 400
Cc1cc(OCc2ccccn2)ccc1Nc1cccc(C(=O)NC2CCCC2)c1 [Compound 71, N-cyclopentyl-3-((2-methyl-4-(pyridin-2-ylmethoxy)phenyl)amino)benzamide]	–	185	–	1 to 400
c1ccc(COc2ccc(Nc3cccc(OCCCC4CCCC4)c3)cc2)nc1 [Compound 73, 3-(3-cyclopentylpropoxy)-N-(4-(pyridin-2-ylmethoxy)phenyl)aniline]	100	–	–	–
